Reference: article PMC4893628, “Chalcone-based Selective Inhibitors of a C4 Plant Key Enzyme as Novel Potential Herbicides” (Scientific Reports, 2016)
Where two headings read alike, the source gives them in different places.

Tests used:
Amaranthus retroflexus = assay: In planta growth experiment, A. retroflexus; format: in vivo; conditions: shoots sprayed, 3 mM
In short: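 Single top spray of 3 mM compound (2.4% DMSO, 0.1% Tween) onto two-leaf-stage plants in a climate chamber (22/20 °C, 16 h/8 h); controls got vehicle only.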

[1] = tested on: Corynebacterium glutamicum ATCC13032; assay: Bacterial growth in microscale cultivation, C. glutamicum; format: cell-based; conditions: for activity at 5 µM / activity at 50 µM / activity at 500 µM / activity at 100 µM: Corynebacterium glutamicum; for Lag Phase: relative to control
In short: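 In a BioLector microscale system shaken at 1200 rpm, growth was tracked by backscatter at 620 nm, and final signal, growth rate (h⁻¹) and lag-phase length were scored against DMSO-only controls. Starting OD600 was 0.5, or 0.25 for B. subtilis. Inhibitors came from DMSO stocks, with trans-chalcone capped at 400 μM and 2'-hydroxychalcone at 100 μM.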

Compound: O=C(/C=C/c1ccccc1)c1ccccc1O [Compound 2, 2′-Hydroxychalcone]
- Influence on plants (Amaranthus retroflexus): No
- activity at 5 µM ([1]; ATCC13032, read-out: Final Backscatter, complex medium, 5 µM, relative to control): 101%
- activity at 50 µM ([1]; ATCC13032, read-out: Final Backscatter, complex medium, 50 µM, relative to control): 105%
- activity at 500 µM ([1]; ATCC13032, read-out: Final Backscatter, complex medium, 500 µM, relative to control): 111%
- activity at 5 µM ([1]; ATCC13032, read-out: Final Backscatter, minimal medium, 5 µM, relative to control): 102%
- activity at 50 µM ([1]; ATCC13032, read-out: Final Backscatter, minimal medium, 50 µM, relative to control): 99.6%
- activity at 100 µM ([1]; ATCC13032, read-out: Final Backscatter, minimal medium, 100 µM, relative to control): 101%
- activity at 500 µM ([1]; ATCC13032, read-out: Final Backscatter, minimal medium, 500 µM, relative to control): 102%
- activity at 5 µM ([1]; ATCC13032, read-out: Growth rate, complex medium, 5 µM, relative to control): 96.2%
- activity at 50 µM ([1]; ATCC13032, read-out: Growth rate, complex medium, 50 µM, relative to control): 91.5%
- activity at 500 µM ([1]; ATCC13032, read-out: Growth rate, complex medium, 500 µM, relative to control): 102%
- activity at 5 µM ([1]; ATCC13032, read-out: Growth rate, minimal medium, 5 µM, relative to control): 101%
- activity at 50 µM ([1]; ATCC13032, read-out: Growth rate, minimal medium, 50 µM, relative to control): 99.6%
- activity at 100 µM ([1]; ATCC13032, read-out: Growth rate, minimal medium, 100 µM, relative to control): 101%
- activity at 500 µM ([1]; ATCC13032, read-out: Growth rate, minimal medium, 500 µM, relative to control): 92.9%
- Lag Phase ([1]; complex medium, 5 µM): 98,4%
- Lag Phase ([1]; complex medium, 50 µM): 100,0%
- Lag Phase ([1]; complex medium, 500 µM): 101,1%
- Lag Phase ([1]; minimal medium, 5 µM): 98,7%
- Lag Phase ([1]; minimal medium, 50 µM): 102,6%
- Lag Phase ([1]; minimal medium, 100 µM): 104,2%
- Lag Phase ([1]; minimal medium, 500 µM): 124,3%
